2 compounds from patent publication US5760285A, “Phosphonyldipeptides useful in the treatment of cardiovascular diseases” (priority 1994, dated 1998) can be followed below.

Structures are written as SMILES.

For one experiment, the target named is T1, NEP (Rattus norvegicus, UniProt P07861).
T1 construct: Membranes from kidney cortex were prepared according to the following procedure; from tissue; host or cells: rat kidney cortex membranes
T1 sequence (P07861 1-750): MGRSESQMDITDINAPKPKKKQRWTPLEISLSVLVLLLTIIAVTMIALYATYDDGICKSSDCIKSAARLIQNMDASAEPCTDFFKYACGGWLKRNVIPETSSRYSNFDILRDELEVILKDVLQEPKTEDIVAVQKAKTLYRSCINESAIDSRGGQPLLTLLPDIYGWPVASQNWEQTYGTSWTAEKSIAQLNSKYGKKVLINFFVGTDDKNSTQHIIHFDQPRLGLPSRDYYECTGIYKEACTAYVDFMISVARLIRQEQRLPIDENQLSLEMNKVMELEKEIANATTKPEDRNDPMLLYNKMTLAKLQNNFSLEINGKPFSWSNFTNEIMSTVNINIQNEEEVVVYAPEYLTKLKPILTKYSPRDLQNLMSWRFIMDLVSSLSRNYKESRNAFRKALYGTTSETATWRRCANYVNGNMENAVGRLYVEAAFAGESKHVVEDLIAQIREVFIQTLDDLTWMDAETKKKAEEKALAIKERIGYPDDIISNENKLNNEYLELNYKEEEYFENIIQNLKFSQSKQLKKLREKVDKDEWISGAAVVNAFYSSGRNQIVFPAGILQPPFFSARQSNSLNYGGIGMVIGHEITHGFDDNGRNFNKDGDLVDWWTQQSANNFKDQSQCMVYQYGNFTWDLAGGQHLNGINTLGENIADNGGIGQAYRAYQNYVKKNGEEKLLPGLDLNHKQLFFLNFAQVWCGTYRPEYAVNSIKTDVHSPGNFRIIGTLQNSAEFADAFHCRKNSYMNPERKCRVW
Kind of experiment: "In vitro" NEP-inhibitory activity (rat kidney cortex membranes, [3H][Leu5]-enkephaline). Type of experiment: biochemical. As to conditions: membranes from rat kidney cortex. The protocol: a) NEP-inhibitory activity
Membranes from kidney cortex were prepared according to the following procedure.
Cortex was carefully dissected, finely minced and suspended in a homogenization buffer (10 mM sodium phosphate pH 7.4 containing 1 mM MgCl2, 30 mM NaCl, 0.02% NaN3) 1:15 weight/volume.
The tissue was then homogenized for 30 seconds using an Ultra-Turrax homogenizer.
The membranes were collected from the buffer/sucrose interface, washed twice with 50 mM TRIS/HCl buffer (pH 7.4) and resuspended into the same buffer for storage.
The membranes were stored in small aliquots at -80° C. until use.
The NEP-inhibitory activity was evaluated by using the following method.
Incubation (20 minutes at 30° C.) was stopped by adding HCl 0.1M (100 μl).

In a further experiment the target is T2, ACE (Oryctolagus cuniculus, UniProt P12822).
T2 construct: ACE (250 mU/ml purified by lung rabbit, EC 3.4.15.1 SIGMA); purchased SIGMA; host or cells: rabbit lung
T2 sequence (P12822 34-1310): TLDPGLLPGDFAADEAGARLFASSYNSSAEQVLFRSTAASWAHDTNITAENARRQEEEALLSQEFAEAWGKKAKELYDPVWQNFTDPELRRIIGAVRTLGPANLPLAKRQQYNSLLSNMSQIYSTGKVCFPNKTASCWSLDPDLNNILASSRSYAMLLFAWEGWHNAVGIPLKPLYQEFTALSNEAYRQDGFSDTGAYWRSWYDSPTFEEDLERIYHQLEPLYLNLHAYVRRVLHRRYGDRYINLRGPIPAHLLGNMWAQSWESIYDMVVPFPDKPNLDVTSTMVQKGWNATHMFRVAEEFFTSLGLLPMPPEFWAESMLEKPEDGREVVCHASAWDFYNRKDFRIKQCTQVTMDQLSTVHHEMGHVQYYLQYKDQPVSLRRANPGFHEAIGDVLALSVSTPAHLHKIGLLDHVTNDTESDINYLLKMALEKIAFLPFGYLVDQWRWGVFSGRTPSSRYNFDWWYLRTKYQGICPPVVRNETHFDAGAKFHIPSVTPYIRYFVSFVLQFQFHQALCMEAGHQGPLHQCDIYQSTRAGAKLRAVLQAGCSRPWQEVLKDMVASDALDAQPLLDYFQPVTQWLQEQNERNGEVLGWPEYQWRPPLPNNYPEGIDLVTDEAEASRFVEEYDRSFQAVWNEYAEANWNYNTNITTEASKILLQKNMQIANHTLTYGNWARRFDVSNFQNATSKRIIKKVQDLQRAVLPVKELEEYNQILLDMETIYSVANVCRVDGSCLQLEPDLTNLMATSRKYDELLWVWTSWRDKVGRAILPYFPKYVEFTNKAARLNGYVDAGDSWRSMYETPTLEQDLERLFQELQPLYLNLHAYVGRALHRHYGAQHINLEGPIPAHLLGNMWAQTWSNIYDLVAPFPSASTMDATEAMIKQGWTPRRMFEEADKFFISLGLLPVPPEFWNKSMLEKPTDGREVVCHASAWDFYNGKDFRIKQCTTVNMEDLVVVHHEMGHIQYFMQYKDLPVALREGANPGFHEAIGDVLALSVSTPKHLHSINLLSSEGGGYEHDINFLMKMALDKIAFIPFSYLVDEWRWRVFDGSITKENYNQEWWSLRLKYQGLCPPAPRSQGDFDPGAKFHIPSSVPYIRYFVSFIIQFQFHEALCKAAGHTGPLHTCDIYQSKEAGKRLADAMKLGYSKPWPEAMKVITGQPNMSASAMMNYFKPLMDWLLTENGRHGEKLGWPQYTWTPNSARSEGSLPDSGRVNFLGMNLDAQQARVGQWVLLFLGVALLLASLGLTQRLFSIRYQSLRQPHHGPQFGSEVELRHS
The experiment is described as follows: "In vitro" ACE-inhibitory activity (FAPGG substrate). Type of experiment: biochemical. The note with it: ACE purified by lung rabbit; tested as lithium salts. Here is the method: b) ACE-inhibitory activity
The reaction was started by adding furylacryloylphenylalanylglycylglycine 0.8 mM (FAPGG-SIGMA).
Contemporaneously, by using a Beckman DU-50 spectrophotometer provided with a program for calculating delta A/minutes and regression coefficients of the enzyme kinetics curves, the absorbance at 340 nm was recorded in continuo for 5 minutes.

Take `C[C@H](CS)C(=O)N1CCC[C@H]1C(=O)O` [Captopril]: the “NEP-inhibitory activity IC50 (nM)” value at NEP (tested as lithium salts) is “not active”. As to `O=C([O-])[C@H](Cc1ccccc1)NC(=O)[C@H](Cc1ccccc1)NP(=O)(O)CCCCc1ccccc1.O=C([O-])[C@H](Cc1ccccc1)NC(=O)[C@H](Cc1ccccc1)NP(=O)(O)CCCCc1ccccc1.[Li+].[Li+]` [Compound R-5, N-[N'-(4-phenyl)butylphosphonyl-L-phenylalanyl]-L-phenylalanine dilithium salt], the NEP inhibition on NEP (at a concentration corresponding to 10^-8 M) was determined as 42%. The half-maximal inhibitory concentration (IC50) at ACE worked out at 20 nM.

A word on the IC50: it is the point on the concentration scale where inhibition reaches its midpoint.
